Experimental findings from patent US9949945B2, “3′ equatorial-fluorine-substituted neuraminidase inhibitor compounds, compositions and methods for the use thereof as anti-virals” (THE UNIVERSITY OF BRITISH COLUMBIA, priority 2012, dated 2018) are described below.

Where two headings read alike, the source gives them in different places.

For one data set, the system named is B/Perth (B/Perth/211/01). The data set can be described thus: microbe, parasite or virus in culture. Format: cell-based. To be noted: read-out: IC50 in the plaque size reduction assay, B/Perth.
Data set [1] deals with A/Mississippi H1N1 (A/Mississippi/3/01). Kind of data set: microbe, parasite or virus in culture. Type of data set: cell-based. To be noted: read-out: IC50 in the plaque size reduction assay, A/Mississippi H1N1.
Data set [2] deals with Brisbane H1N1 (A/Brisbane/59/07) neuraminidase (Influenza A virus, UniProt D5F1R0).
For data set [3], the target named is California H1N1 (A/California/07/09) neuraminidase (Influenza A virus, UniProt C3W6G3).
A further data set deals with A/Fukui H3N2. Kind of data set: microbe, parasite or virus in culture. To be noted: read-out: IC50 in the plaque size reduction assay, A/Fukui H3N2. Format: cell-based.
The target in data set [4] is B/Perth wt (B/Perth/211/01) NA (Influenza B virus, UniProt Q3S340). Format: biochemical.
The target of another data set is Human Neu2 (Homo sapiens, UniProt Q9Y3R4). Kind of data set: Time-dependent inactivation of human Neu2. Format: biochemical. The settings on record: 1 mM inactivator, 27° C., pH 5.6. The protocol:
All experiments were carried out in a 100 mM Na2HPO4/50 mM Citric acid buffer, pH 5.6. […] The data were analyzed using the program GraFit 4.0 (Erithacus software) (R. Leatherbarrow, Erithacus Software Ltd., 4th Edition, Staines, UK, (1990)). […] Residual enzyme activity was determined at appropriate time intervals by the addition of an aliquot of the inactivation mixture to an assay buffer solution containing 8 mM 4-trifluoromethylumbelliferyl sialic acid (CF3MUSA). The initial linear increase in absorbance at 400 nm was used as a measure of the enzyme activity. These initial rates at each time point were plotted as a function of time to obtain time-dependent exponential decay curves from which ki obs could be obtained using the equation: (rate)t=(rate)t=0e^([…])+offset IC50 Enzyme Inhibition Assays

For data set [5], the target named is Hong Kong H3N2 (A/HongKong/01/68) neuraminidase (Influenza A virus, UniProt Q91MA2). The data set can be described thus: biochemical.
For data set [6] the following is noted: mouse, in vivo.
A short description of another data set: in vivo. To be noted: Balb/c, mouse, 1 mg/kg.
The target in the next data set is A/Fukui H3N2 wt NA (Influenza A virus, UniProt A0A0F6NYK2). Format: biochemical. The settings on record: read-out: IC50 in the enzyme inhibition assay, A/Fukui H3N2.
Data set [7] concerns the target B/Florida wt (B/Florida/4/2006) NA (Influenza B virus, UniProt J7JZT1). Format: biochemical.
The target of data set [8] is Sol Isl sH1N1 wt (A/Solomon Islands/3/2006) NA (Influenza A virus, UniProt B4URD9). Format: biochemical.
Data set [9] has as its target sH1N1/01 wt (A/Mississippi/3/01 H1N1) NA (Influenza A virus, UniProt Q3M0T6). Format: biochemical.
The mark [10] stands for this setting: read-out: IC50 in the enzyme inhibition assay, B/Perth.

Human Neu2, sequence (Q9Y3R4 whole entry): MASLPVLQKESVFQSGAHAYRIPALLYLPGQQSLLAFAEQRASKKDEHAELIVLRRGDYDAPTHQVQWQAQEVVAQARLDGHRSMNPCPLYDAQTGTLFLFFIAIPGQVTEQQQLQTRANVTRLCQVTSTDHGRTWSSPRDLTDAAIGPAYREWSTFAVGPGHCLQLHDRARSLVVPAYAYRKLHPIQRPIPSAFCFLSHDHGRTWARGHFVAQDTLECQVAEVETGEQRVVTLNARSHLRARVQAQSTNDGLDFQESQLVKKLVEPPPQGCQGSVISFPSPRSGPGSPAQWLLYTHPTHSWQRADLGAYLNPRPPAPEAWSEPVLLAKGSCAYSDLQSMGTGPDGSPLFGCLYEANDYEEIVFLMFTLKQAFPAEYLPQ

One may read the Ki as the equilibrium dissociation constant of an inhibitor or competing ligand from its target. Regarding `CC(=O)NC1C(N)C(F)C(F)(C(=O)O)OC1[C@H](O)[C@H](O)CO` (stereo in doubt) [FeqAmDFSA, 5-Acetamido-2,4,5-trideoxy-4-amino-2α, 3β-difluoro-α-D-erythro-L-gluco-nonulo-pyranosonate], the IC50 is 10 to 100 nM with B/Perth (B/Perth/211/01) (Influenza B virus, MDCK); 100 nM in data set [1] (Influenza A virus, H1N1, MDCK); 1000 nM in the data set on A/Fukui H3N2 (Influenza A virus, H3N2, MDCK); 5.4 nM in [4] (setting [10]). Besides, the khyd in data set [2] and in [3] was 0.0027 0.0059 0.0150 0.0140 0.0045 min^−1 in each case. The “t1/2 (inac)” value in data set [2] and in data set [3] was 0.9 0.2 0.4 0.8 — min in each case. In addition, the “t1/2 (reac)” value in data set [2] and in data set [3] was 256 117 46 49 153 min in each case. In [3], this molecule yielded an inhibition constant Ki of 370 nM.
Turning to `CC(=O)NC1C(NC(=N)N)C(F)C(F)(C(=O)O)OC1[C@H](O)[C@H](O)CO` (stereo in doubt) [FeqGuDFSA, 5-Acetamido-2,4,5-trideoxy-2α, 3β-difluoro-4-guanidino-α-D-erythro-L-gluco-nonulopyranosonate], at Human Neu2, the “inactivation of Neu2” value is reported as “occurred slowly”. Further, the IC50 was found to be 1 nM with B/Perth (B/Perth/211/01) (Influenza B virus, MDCK); 1 nM in [1] (Influenza A virus, H1N1, MDCK); 10 nM with A/Fukui H3N2 (Influenza A virus, H3N2, MDCK); 4.5 nM in [4] (read-out: IC50 B/Perth wt); 4.5 nM in [4] (setting [10]). For the same molecule, the khyd in [2] and in data set [3] was 0.0005 0.0015 0.001 0.0019 0.0005 min^−1 in each case. Besides, the “t1/2 (inac)” value in data set [2] and in data set [3] was 0.3 0.5 0.9 0.5 0.8 min in each case. In addition, the “t1/2 (reac)” value in [2] and in [3] was 1380 460 690 363 1380 min throughout. Further, the Ki in [3] came out at 100 nM; in [5], 150 nM.
Consider `CC(=O)N[C@H]1C([C@H](O)[C@H](O)CO)O[C@@](F)(C(=O)O)C(F)[C@H]1O` (stereo partly drawn) [DFSA, 5-Acetamido-5-deoxy-3-fluoro-D-erythro-β-L-manno-2-nonulopyranosonic acid fluoride], for which the IC50 came to 1000 nM in the data set on B/Perth (B/Perth/211/01) (Influenza B virus, MDCK); 1000 nM in data set [1] (Influenza A virus, H1N1, MDCK); 100000 nM with A/Fukui H3N2 (Influenza A virus, H3N2, MDCK); 70 nM in data set [4] (setting [10]).
Take `CC(=O)N[C@@H]1C(N)C(F)[C@](F)(C(=O)O)OC1[C@H](O)[C@H](O)CO` (some centres unmarked) [FaxAmDFSA]: the IC50 was determined as 100 nM with B/Perth (B/Perth/211/01) (Influenza B virus, MDCK); 100 nM in [1] (Influenza A virus, H1N1, MDCK); 1000 nM in the data set with A/Fukui H3N2 (Influenza A virus, H3N2, MDCK); 210 nM in data set [4] (setting [10]). For the same molecule, the khyd in data set [2] and in data set [3] was 0.0001 0.0002 0.0001 0.0003 <0.0001 min^−1 throughout. The “t1/2 (inac)” value in data set [2] and in data set [3] was 2.1 2.5 1.7 4.0 20.8 min throughout. In addition, the “t1/2 (reac)” value in data set [2] and in [3] was 6900 3450 6900 2300 >6900 min each time. The inhibition constant (Ki) in [3] amounted to 4280 nM; in data set [5], 240 nM.
Broadly, the bioavailability is dose-corrected exposure relative to a reference, in per cent. Low readings indicate little systemic uptake, high ones much systemic uptake. With `CC(=O)N[C@@H]1C(NC(=N)N)C(F)[C@](F)(C(=O)O)OC1[C@H](O)[C@H](O)CO` (some centres unmarked) [FaxGuDFSA], the “inactivation of Neu2” value on Human Neu2 is “occurred slowly”. The IC50 was 10 to 100 nM with B/Perth (B/Perth/211/01) (Influenza B virus, MDCK); 10 nM in data set [1] (Influenza A virus, H1N1, MDCK); 100 nM with A/Fukui H3N2 (Influenza A virus, H3N2, MDCK); 54 nM in data set [4] (read-out: IC50 B/Perth wt); 54 nM in [4] (setting [10]). Also, the khyd in [2] and in data set [3] was <0.0001 <0.0001 <0.0001 <0.0001 <0.000l min^−1 throughout. Further, the “t1/2 (inac)” value in [2] and in data set [3] was 7.4 9.2 20.9 6.8 20.2 min in each case. The “t1/2 (reac)” value in [2] and in data set [3] was >6900 >6900 >6900 >6900 >6900 min each time. The Ki in [3] stood at 350 nM; in [5] it was 70 nM. Further, in [6], the “plasma half-life after intranasal administration vs IV injection” value is “significantly longer”. Also, the bioavailability in the data set “in vivo” was determined as 92%.
As for Oseltamivir, the IC50 at A/Fukui H3N2 wt NA was found to be 1.7 nM; in data set [7], 22.6 nM.
As to Zanamivir, the IC50 in the data set on B/Perth (B/Perth/211/01) is 10 nM; in data set [1] it was no more than 1 nM; in data set [8], 2.2 nM; in the data set with A/Fukui H3N2 it was 100 nM; in data set [9] (read-out: IC50 in the enzyme inhibition assay, A/Mississippi H1N1) it was 1.9 nM; in [9] (read-out: IC50 sH1N1/01 wt), 1.9 nM.
